Legend:
[1] = target: T1, calcium-calmodulin dependent phosphodiesterase (CaM-PDE) (Bos taurus, UniProt P14100); assay: Phosphodiesterase inhibition in vitro, calcium-calmodulin dependent phosphodiesterase (CaM-PDE), 3H-cGMP substrate; type: biochemical; conditions: CaM-PDE from bovine aorta; 1 μM 3H-cGMP; pH 7.5; 25 minutes at room temperature
T1 construct: from tissue; host or cells: bovine aorta

[2] = system: spontaneously hypertensive rats (SHR); assay: Antihypertensive activity in conscious spontaneously hypertensive rats (SHR), oral; type: in vivo, rat
Excerpt: The present compounds are useful in inhibiting the phosphodiesterase enzymes. These phosphodiesterase enzymes are known to hydrolyze cGMP in smooth muscle. High levels of cGMP are associated with the relaxation of vascular smooth muscle, with a consequent subsequent reduction in blood pressure. Thus, it is believed that by inhibiting these phosphodiesterase enzymes, cGMP levels in muscle will be either maintained or increased, with a subsequent reduction in blood pressure. In vivo antihypertensive activity is determined orally in spontaneously hypertensive rats (SHR).
Antihypertensive activity in rats
The ability of the compounds of the present invention to lower blood pressure can be assessed in vivo in conscious spontaneously hypertensive rats (SHR). SHR males are purchased from Taconic Farms, Germantown, N.Y. and are approximately 16-18 weeks old when anesthetized with ether. The caudal (ventral tail) artery is cannulated with polyethylene tubing (PE50) and blood pressure and heart rate are recorded as described by Baum, T. et. al, J. Cardiovasc. Pharmacol. Vol 5, pp. 655-667, (1983). Rats are placed into plastic cylindrical cages where they rapidly recover consciousness. Blood pressure and heart rate are allowed to stabilize for approximately 90 minutes prior to compound administration. […] Activity is expressed as the fall in mean blood pressure (MBP) in millimeters of mercury (mm Hg). […]

SMILES | IC50 [1] | SHR: fall in MBP at 25 mpk [2]
CN1C(=O)c2[nH]c(Cc3ccc(N4CCOCC4)cc3)nc2N2C1=N[C@@H]1CCC[C@@H]12 [Example 3C] | 200 nM | –
CN1C(=O)c2[nH]c(Cc3ccc(-c4ccccc4)cc3)nc2N2C1=N[C@@H]1CCC[C@@H]12 [Example 3H] | < 100 nM | –
CC(C)[C@@H]1CN2C(=N1)N(C)C(=O)c1[nH]c(Cc3ccccc3)nc12 [Example 10] | 100 nM | –
CN1C(=O)c2[nH]c(Cc3ccc4c(c3)OCO4)nc2N2C1=N[C@@H]1CCC[C@@H]12 [Example 3G] | 300 nM | –
CN1C(=O)c2[nH]c(Cc3cccc(C(F)(F)F)c3)nc2N2C1=N[C@@H]1CCC[C@@H]12 [Example 3F] | 800 nM | –
CN1C(=O)c2[nH]c(Cc3ccc(C(F)(F)F)cc3)nc2N2C1=N[C@@H]1COC[C@@H]12 [Example 12] | 3000 nM | –
Cc1ccc(Cc2nc3c([nH]2)C(=O)N(C)C2=N[C@@H]4CCC[C@@H]4N23)cc1 [Example 3A] | 100 nM | –
CN1C(=O)c2[nH]cnc2N2C1=N[C@@H]1CCC[C@@H]12 (relative stereo) [Compound B, cis-5,6a,7,8,9,9a-hexahydro-5-methylcyclopenta-[4,5]imidazo[2,1-b]-purin-4(3H)-one, reference compound] | 33000 nM | 32 mmHg
CN1C(=O)c2[nH]c(Cc3ccccc3)nc2N2C1=N[C@@H]1CCC[C@@H]12 [Example 1] | 100 nM | –
CN1C(=O)c2[nH]c(Cc3ccccc3)nc2N2C1=N[C@@H]1CCC[C@@H]12 (relative stereo) [Compound A, reference compound] | 200 nM | 6 mmHg
CN1C(=O)c2[nH]c(Cc3ccc4ccccc4c3)nc2N2C1=N[C@@H]1CCC[C@@H]12 [Example 6] | 480 nM | –
CN1C(=O)c2[nH]c(Cc3ccccc3)nc2N2CC3(CCCC3)N=C12 [Example 8] | 100 nM | –
CN1C(=O)c2[nH]c(Cc3ccc(Cl)cc3)nc2N2C1=N[C@@H]1CCC[C@@H]12 [Example 7] | 650 nM | –
COc1ccc(Cc2nc3c([nH]2)C(=O)N(C)C2=N[C@@H]4CCC[C@@H]4N23)cc1 [Example 1B] | 200 nM | –
CN1C(=O)c2[nH]c(Cc3ccc4c(c3)OCO4)nc2N2C1=NC13CCCC1CCC23 (centres unmarked) [Example 11] | 200 nM | –
CN1C(=O)c2[nH]c(Cc3ccc(F)cc3)nc2N2C1=N[C@@H]1CCC[C@@H]12 [Example 1A] | < 100 nM | –
CN1C(=O)c2[nH]c(Cc3ccc(O)cc3)nc2N2C1=N[C@@H]1CCC[C@@H]12 [Example 3] | < 100 nM | –
COc1ccc(Cc2nc3c([nH]2)C(=O)N(C)C2=N[C@@H]4CCC[C@@H]4N23)cc1OC [Example 2B] | 400 nM | –
CN1C(=O)c2[nH]c(Cc3ccc(N(C)C)cc3)nc2N2C1=N[C@@H]1CCC[C@@H]12 [Example 2] | < 100 nM | –
CN1C(=O)c2[nH]c(Cc3ccc(C(F)(F)F)cc3)nc2N2C1=N[C@@H]1CCC[C@@H]12 [Example 1C] | 600 nM | –
CN1C(=O)c2[nH]c(Cc3ccc(OC(F)(F)F)cc3)nc2N2C1=N[C@@H]1CCC[C@@H]12 [Example 3B] | 600 nM | –
CN1C(=O)c2[nH]c(Cc3ccccc3)nc2N2CC(C)(C)N=C12 [Example 9] | 300 nM | –
COc1cccc(Cc2nc3c([nH]2)C(=O)N(C)C2=N[C@@H]4CCC[C@@H]4N23)c1 [Example 3E] | 900 nM | –
COc1cc(Cc2nc3c([nH]2)C(=O)N(C)C2=N[C@@H]4CCC[C@@H]4N23)cc(OC)c1OC [Example 2A] | 700 nM | –

Source: patent US5939419A, “2-benzyl-polycyclic guanine derivatives and process for preparing them” (Schering-Plough Corporation, priority 1995, dated 1999)
